In patent publication US20070099879A1 (priority 2005, published 2007):
Entries after “also recorded” stand apart in the source; their conditions may differ.

Columns and labels:
[1] = test system: retinal neovascularization; assay: Mouse oxygen-induced ischemic retinopathy (OIR) model, retinal neovascularization; type: in vivo; conditions: for inhibition of neovascularization: P17 mice
Experimental: All experimental procedures involving animals were performed according to the ARVO Statement for the Use of Animals in Ophthalmic and Vision Research. […] In this model, 7-day-old (P7) pups (8-10 pups) and their mother were placed in an airtight incubator and exposed to an atmosphere of 75±0.5% oxygen (hyperoxia) for 5 days. Incubator temperature was maintained at 23±2° C., and oxygen was continuously monitored with a PROOX model 110 oxygen controller (Reming Bioinstruments Co., Redfield, N.Y.). Mice were then brought to room air for 5 days. Maximum retinal neovascularization occurred from P12 to P17. […] The other half of the littermates was injected with 0.1 ml of mineral oil. Generally one eye from each mouse was used for histochemical analysis and the other eye for histological evaluation as outlined below. These experiments were repeated at least 3 times for each dose.
Briefly, P17 mouse eyes were enucleated and briefly fixed in 4% paraformaldehyde in phosphate buffered saline (PBS) (10 min on ice). The paraformaldehyde fixed eyes were then fixed in 70% ethanol for at least 24 h at −20° C. Retinas were dissected in PBS and then washed with PBS 3 times, 10 min each. Following incubation in blocking buffer (50% fetal calf serum, 20% normal goat serum (NGS) in PBS) for 2h, the retinas were incubated with rabbit anti-mouse collagen IV (Chemicon, diluted 1:500 in PBS containing 20% fetal calf serum, 20% normal goat serum) at 4° C. overnight. Retinas were then washed 3 times with PBS, 10 min each, incubated with a secondary antibody Alexa 594-labeled goat-anti-rabbit (Invitrogen, Carlsbad, Calif.), at 1:500 dilution prepared in PBS containing 20% FCS, 20% NGS for 2 h at room temperature, washed 4 times with PBS (30 min each), and mounted on a slide with PBS/glycerol (2vol/1vol). Retinas were viewed by fluorescence microscopy, and images were captured in digital format using a Zeiss microscope (Carl Zeiss, Chester, Va.).
Quantification of retinal neovascularization on P17 was performed by counting vascular cell nuclei anterior to the […] (Wang S, et al., Attenuation of Retinal Vascular Development and Neovascularization during Oxygen-Induced Ischemic Retinopathy in Bcl-2 -/- Mice. Developmental Biol. 2005;279:205-219). Briefly, mice eyes were enucleated, fixed in formalin for 24 h, and embedded in paraffin. Serial sections (6 μm), each separated by at least 40 μm, were taken from around the region of the optic nerve. The hematoxylin- and PAS-stained sections were examined in masked fashion, by two independent observers without the knowledge of the samples identity, the presence of neovascular tufts projecting into the vitreous from the retina. […]

[2] = test system: VEGF; assay: Western blot of VEGF in whole eye extracts of P15 mice during OIR; type: in vivo, mouse
Experimental: Vascular endothelial growth factor (VEGF) levels were determined by Western blotting of whole eye extracts prepared from P15 mice during OIR (5 days of hyperoxia and 3 days of normoxia) when maximum levels of VEGF were expressed (Wang S, et al. Attenuation of Retinal Vascular Development and Neovascularization during Oxygen-Induced Ischemic Retinopathy in Bcl-2 -/- Mice. Developmental Biol. 2005;279:205-219). Mice were euthanized by CO2 inhalation, then eyes from 2 or 3 mice dissected, homogenized in 0.2 ml of RIPA buffer, 10 mM HEPES pH 7.6, 142.5 mM KCl, 1% NP-40, and protease inhibitor cocktail, (Roche Applied Science, Indianapolis, Ind.), sonicated briefly, and incubated at 4° C. for 20 min. […] Supernatants were transferred to a clean tube, and protein concentrations were determined using the DC Protein Assay (Bio-Rad Laboratories, Hercules, Calif., Cat. No. 500-011 1). Approximately 20 μg of protein from the centrifuged homogenates were analyzed by SDS-PAGE (4-20% Tris-Glycin gel, Invitrogen, Carlsbad, Calif.) under reducing conditions and transferred to a nitrocellulose membrane. […] For quantitative assessments, the band intensities relative to loading controls were determined by scanning the blots using the Molecular Dynamics Storm 860 Scanner and Image Quant Software (Amersham Biosciences, Piscataway, N.J.).

[3] = test system: retinal endothelial cells; assay: Retinal endothelial cell proliferation assay (CellTiter 96 AQueous); type: cell-based, mouse; conditions: for Relative Survival: relative to solvent control
Experimental: Primary mouse retinal endothelial cell (REC) cultures were prepared and maintained as described previously (Su X, et al., Isolation and characterization of murine retinal endothelial cells. Mol Vision. 2003;9:171-178). Briefly, REC were isolated from wild type or transgenic-immortomouse by collagenase digestion of retina and affinity purification using magnetic beads coated with platelet/endothelial cell adhesion molecule-1 (anti-PECAM-1). The bound cells were plated on fibronectin-coated wells and expanded. The REC were characterized for expression and localization of endothelial cell markers by fluorescence-activated cell sorting (FACS) analysis and indirect immuno fluorescence staining. The ability of these cells to form capillary like networks was assessed on matrigel™. For cell proliferation assays, retinal endothelial cell (10,000) were plated in triplicate in 96-well plates and incubated overnight. […] The degree of proliferation was assessed using the nonradioactive cell proliferation assay (CellTiter 96® AQueous; Promega, Madison, Wis.) as recommended by the supplier.

[4] = test system: retinal EC; assay: Retinal EC transwell migration assay; type: cell-based, mouse; conditions: 10 μM calcitriol, 3 h
Experimental: Retinal EC migration was determined using both wound migration and transwell assays. […] Wound closure was monitored by phase microscopy, and digital images were obtained at different time points used for quantitative assessment of migration. For transwell migration, wells (8 μm pore size, 6.5 mm membrane; Costar) were coated with Matrigel™ (200 μg/ml) or fibronectin (2 μg/ml) in PBS on the bottom side at 4° C. overnight. The next day, inserts were rinsed with PBS, blocked in PBS containing 2% BSA for 1 h at room temperature, and washed with PBS. Cells were removed by trypsin-EDTA, counted, and resuspended at 1×10^6 cells/ml in serum-free medium. Inserts were placed in 24-well dishes (Costar) containing 0.5 ml of serum-free medium and 0. 1 ml of cell suspension was then added to the top of the insert. […] The inserts were then mounted on a slide cell side up, and the number of cells which migrated to the bottom of the filter was determined by counting 10 high power fields at X200 magnification.
FIG. 5C illustrate is a quantification of the transwell assay as described above. […] Cells were removed by trypsin-EDTA, counted, and resuspended at 1×10^6 cells/ml in serum-free medium. […] The inserts were then mounted on a slide cell side up and the number of cells which migrated to the bottom of the filter was determined by counting 10 high power fields at ×200 magnification. […]

[5] = Toxic effect assessment: body weight of mice during OIR; conditions: mouse, in vivo
From the text: In the OIR studies, all pups had similar body weight prior to initiation of the experiment (P12) and after exposure to high oxygen (P17).

[6] = test system: retinal endothelial cells; assay: Retinal endothelial cell capillary morphogenesis in Matrigel; type: cell-based, mouse; conditions: 10 μM calcitriol, 18 h
Experimental: The ability of the cultured retinal endothelial cells to form capillary like networks was assessed on Matrigel™ (B D Biosciences, San Jose, Calif.). The capillary morphogenesis assays in Matrigel™ were performed as previously described (Su X, et al., Isolation and characterization of murine retinal endothelial cells. Mol Vision. 2003;9:171-178; Rothermel T A, et al., Polyoma virus middle-T-transformed PECAM-1 deficient mouse brain endothelial cells proliferate rapidly in culture and form hemangiomas in mice. J Cell Physiol. 2005;202:230-239). Briefly, 0.5 ml of Matrigel™ was added to a cold 35 mm tissue culture plate and incubated at 37° C. for at least 30 min to allow the Matrigel™ to harden. […] Cultures were monitored for 6-48 h, and images were captured in digital format after 18 h when maximum organization was observed. […] The capillary network formed by control cells began to fall apart at 24-48 h.

[7] = test system: retinoblastoma; conditions: 0.05 μg/d, mice; cited from earlier work
[8] = test system: retinal EC; assay: Retinal EC wound migration assay; type: cell-based, mouse; conditions: 10 μM calcitriol, 0, 24 and 48 hours
Experimental: Retinal EC migration was determined using both wound migration and transwell assays. […] Wound closure was monitored by phase microscopy, and digital images were obtained at different time points used for quantitative assessment of migration. For transwell migration, wells (8 μm pore size, 6.5 mm membrane; Costar) were coated with Matrigel™ (200 μg/ml) or fibronectin (2 μg/ml) in PBS on the bottom side at 4° C. overnight. The next day, inserts were rinsed with PBS, blocked in PBS containing 2% BSA for 1 h at room temperature, and washed with PBS. Cells were removed by trypsin-EDTA, counted, and resuspended at 1×10^6 cells/ml in serum-free medium. Inserts were placed in 24-well dishes (Costar) containing 0.5 ml of serum-free medium and 0. 1 ml of cell suspension was then added to the top of the insert. Cells were allowed to migrate through the filter for 3 h in a tissue culture incubator. After incubation, the cells on the top of the filter were scraped off using a cotton swab; the membrane was then fixed in 4% paraformaldehyde and stained with hematoxylin and eosin. The inserts were then mounted on a slide cell side up, and the number of cells which migrated to the bottom of the filter was determined by counting 10 high power fields at X200 magnification.

Compound: C=C1/C(=C\C=C2/CCC[C@]3(C)[C@@H]([C@H](C)CCCC(C)(C)O)CC[C@@H]23)C[C@@H](O)C[C@@H]1O [calcitriol, 1α,25-dihydroxyvitamin D3]
- MEAN NUMBER OF ENDOTHELIAL NUCLEI ([1]; 0.025 μg (~5 μg/Kg), n = 4, mean ± SD, P17, control 39.9 ± 6.4, P < 0.001): 3.8 ± 2.2 (SD)
- inhibition of neovascularization ([1]; 0.5 μg/Kg calcitriol, vs control): 60%
- inhibition of neovascularization ([1]; 2.5 μg/Kg calcitriol, vs control): 75%
- inhibition of retinal neovascularization ([1]; 5 μg/Kg (0.025 μg) calcitriol i.p. per day P12 to P17, P17 mice, vs control): greater than 90%
- Relative Intensity of Expressed VEGF ([2]; 0.025 μg (~5 μg/Kg), n = 3, P15 eye extracts, relative to β-catenin, mean ± SD, control 0.39 ± 0.08): 0.37 ± 0.06 (SD)
- difference in VEGF expression between control and calcitriol-treated eyes ([2]; 5 μg/Kg, P15 mice during OIR): no significant difference
- Relative Survival ([3]; 0.25 μM calcitriol, 3 days): 108%
- Relative Survival ([3]; 0.50 μM calcitriol, 3 days): 111%
- Relative Survival ([3]; 10.00 μM calcitriol, 3 days): 111%
- Relative Survival ([3]; 50.00 μM calcitriol, 3 days): 87%
- Relative Survival ([3]; 100.00 μM calcitriol, 3 days): 12%
- inhibition at 100 µM ([3]; Mus musculus, Endothelial cell, 72 h, read-out: inhibition of retinal endothelial cell proliferation, 100 μM calcitriol, 3 days): 90%
- effect on retinal endothelial cell proliferation ([3]; calcitriol 0-10 μM, 9 days): no effect; also recorded: minimal effects
- effect on retinal endothelial cell proliferation ([3]; calcitriol 50 μM and higher): significant inhibition; also recorded: Significant toxicity
- effect on retinal endothelial cell proliferation ([3]; calcitriol up to 10 μM, 3 days): No significant inhibition
- effect on retinal endothelial cell proliferation ([3]; calcitriol up to 10 μM, 3 days, listed as Calcitriol): no effect
- retinal EC migration through filter coated with Matrigel [4]: no significant effect
- retinal EC migration through filters coated with fibronectin ([4]; compared to solvent control (not shown)): slightly enhanced
- Body Weight [5]: 5.04 ± 0.23
- mortality during OIR experiments [5]: None of the experimental animals died
- capillary morphogenesis in Matrigel [6]: completely inhibited; also recorded: completely abolished
- capillary morphogenesis in Matrigel ([6]; listed as Calcitriol): no capillaries are observed
- decrease in retinal involvement of retinoblastoma compared to controls [7]: 50%
- retinal EC wound migration vs ethanol control [8]: not significant
